Key:
S. aureus (Smith) = test: mouse protection test, CD50 (Table III); format: in vivo; settings: for F.I.C. Index / CD50 (mg/kg) Combination: S. aureus (Smith) in mice, dipeptide:D-cycloserine 10:1; for CD50 (mg/kg) Combination: amount of peptide only listed, D-cycloserine is 10% of it; for CD50 (mg/kg) Peptide: mice infected i.p. with S. aureus (Smith), dosed subcutaneously, 7 days survival, peptide alone
Experimental: (§1) Charles River mice, weighing approximately 20 g. each, are infected intraperitoneally with 10-100 times the LD of the infecting organism. At predetermined intervals post-infection, e.g., 1 and 5 hours, mice are dosed subcutaneously with graded doses of the halogenated peptide, antibiotic and combination thereof. The number of mice surviving each treatment for 7 days post-infection is observed and the CD50 is calculated. The fractional inhibitory concentration (F.I.C.) for each combination is calculated in the usual manner.
(§2) In this table, the following infecting microorganisms were used:
(§3) The infecting organisms are listed by the above code; the compounds are listed by their Example number. In all instances, the dipeptide and D-cycloserine were tested at a ratio of 10:1. The CD50 combination column lists only the amount of peptide present; the D-cycloserine amount is 10% of the listed amount.

E. coli (Juhl) [1] = test: mouse protection test, CD50 (Table III); format: in vivo
Experimental: as §1, §2, §3

E. coli (Juhl) [2] = test: serial dilution in synthetic medium in test tubes, MIC and F.I.C. index (Table II); format: cell-based; settings: for MIC ppm Antibiotic: antibiotic alone
Experimental: The halogenated peptides alone, the antibiotic alone or mixtures of the halogenated peptides and selected antibiotics are prepared in sterile concentrated aqueous solutions at the desired ratios. Serial dilutions are made to give a range of concentrations of the test substances. Samples of the dilutions are mixed with an appropriate sterile synthetic medium in test tubes. The tubes are then inoculated with an appropriate test organism and incubated at 35°-37° C. for 16-20 hours. Minimum inhibitory concentrations, i.e., that concentration which inhibits visible growth, are read and the fractional inhibitory concentration indices (F.I.C.) are calculated. In all instances, E. coli (Juhl) was used as the infecting microorganism.

[3] = combination with D-cycloserine, ratio Pep/Antib. 1:8
[4] = E. coli (Juhl), 35-37° C., 16-20 hours

Row | Structure (SMILES) | F.I.C. Index (S. aureus (Smith)) | CD50 (mg/kg) Combination (S. aureus (Smith)) | CD50 (mg/kg) Peptide (S. aureus (Smith)) | also measured
1 | N[C@@H](CCC(=O)O)C(=O)N[C@H](CF)C(=O)O [Example 9, L-Glu-βF-D-Ala] | 0.30 | 7.6 mg/kg | 28.5 mg/kg | F.I.C. Index (E. coli (Juhl) [1]; E. coli (Juhl) in mice, dipeptide:D-cycloserine 10:1): 0.96; CD50 (mg/kg) Combination (E. coli (Juhl) [1]; E. coli (Juhl) in mice, dipeptide:D-cycloserine 10:1, amount of peptide only listed, D-cycloserine is 10% of it): 72 mg/kg; CD50 (mg/kg) Peptide (E. coli (Juhl) [1]; mice infected i.p. with E. coli (Juhl), dosed subcutaneously, 7 days survival, peptide alone): 81 mg/kg; F.I.C. Index (E. coli (Juhl) [2]; [3]): 0.50; MIC ppm Pep/Antib., antibiotic part (E. coli (Juhl) [2]; [3]): 3.1 ppm; MIC ppm Pep/Antib., peptide part (E. coli (Juhl) [2]; [3]): 0.39 ppm; MIC ppm Peptide (E. coli (Juhl) [2]; peptide alone, E. coli (Juhl), 35-37° C., 16-20 hours): > 800 ppm
2 | NCC(=O)N[C@H](CF)C(=O)O [Example 10, Gly-βF-D-Ala] | 0.27 | 4.7 mg/kg | 19 mg/kg | 
3 | CNCC(=O)N[C@H](CF)C(=O)O [Example 11, Sar-βF-D-Ala] | 0.24 | 6.2 mg/kg | 29 mg/kg | 
4 | NCC(=O)N[C@H](CCl)C(=O)O [Example 12, Gly-βCl-D-Ala] | 0.30 | 17.4 mg/kg | 155 mg/kg | 
5 | COC(=O)[C@@H](CF)NC(=O)[C@H](C)N.Cl [Example 15, L-Ala-βF-D-Ala-OMe.HCl] | 0.32 | 5.5 mg/kg | 18 mg/kg | 
6 | CCC(N)C(=O)N[C@H](CF)C(=O)O (stereo partly drawn) [Example 17, L-αNH2 -But-βF-D-Ala] | 0.20 | 2.6 mg/kg | 13.7 mg/kg | 
7 | CCCCCCC(N)C(=O)N[C@H](CF)C(=O)O (stereo partly drawn) [Example 20, D,L-α-amino-octanoyl-βF-D-Ala] | 0.10 | 8.6 mg/kg | 75.9 mg/kg | 
8 | CC1(C)S[C@@H]2[C@H](NC(=O)C(C(=O)O)c3ccccc3)C(=O)N2[C@H]1C(=O)O (stereo partly drawn) [carbencillin, reference compound] |  |  |  | MIC ppm Antibiotic (E. coli (Juhl) [2]; [4]): 6.2 ppm
9 | CC(=O)OCC1=C(C(=O)O)N2C(=O)[C@@H](NC(=O)Cc3cccs3)[C@H]2SC1 [cephalothin, reference compound] |  |  |  | MIC ppm Antibiotic (E. coli (Juhl) [2]; [4]): 6.2 ppm
